Measured values taken from patent US10669272B2, “Substituted naphthyridinone compounds useful as T cell activators” (BRISTOL-MYERS SQUIBB COMPANY, priority 2018, dated 2020).
Where two headings read alike, the source gives them in different places.

What was measured:
Human venous whole blood = test: Human whole blood IFN-γ assay; assay type: cell-based; details: human whole blood, read-out: INFg Whole Blood Normalized Agonist EC50;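 also: blood from healthy donors exposed to compound for 1 h before stimulation with anti-CD3 and anti-CD28 at 1 µg/mL each, IFN-γ quantified in supernatant by AlphaLISA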
human DGKα = target: T1, human DGKα (Homo sapiens, UniProt P23743); test: DGKα LIPGLO assay (extruded liposome substrate), in vitro DGK inhibition; assay type: biochemical; details: read-out: DGKa LIPGLO IC50
T1 construct: TVMV protease cleavage site (C); Hexa-His (C); made in house; host or cells: Sf9 insect cells (baculovirus, Bac-to-Bac)
T1 sequence (P23743 with tags, fused parts or gaps): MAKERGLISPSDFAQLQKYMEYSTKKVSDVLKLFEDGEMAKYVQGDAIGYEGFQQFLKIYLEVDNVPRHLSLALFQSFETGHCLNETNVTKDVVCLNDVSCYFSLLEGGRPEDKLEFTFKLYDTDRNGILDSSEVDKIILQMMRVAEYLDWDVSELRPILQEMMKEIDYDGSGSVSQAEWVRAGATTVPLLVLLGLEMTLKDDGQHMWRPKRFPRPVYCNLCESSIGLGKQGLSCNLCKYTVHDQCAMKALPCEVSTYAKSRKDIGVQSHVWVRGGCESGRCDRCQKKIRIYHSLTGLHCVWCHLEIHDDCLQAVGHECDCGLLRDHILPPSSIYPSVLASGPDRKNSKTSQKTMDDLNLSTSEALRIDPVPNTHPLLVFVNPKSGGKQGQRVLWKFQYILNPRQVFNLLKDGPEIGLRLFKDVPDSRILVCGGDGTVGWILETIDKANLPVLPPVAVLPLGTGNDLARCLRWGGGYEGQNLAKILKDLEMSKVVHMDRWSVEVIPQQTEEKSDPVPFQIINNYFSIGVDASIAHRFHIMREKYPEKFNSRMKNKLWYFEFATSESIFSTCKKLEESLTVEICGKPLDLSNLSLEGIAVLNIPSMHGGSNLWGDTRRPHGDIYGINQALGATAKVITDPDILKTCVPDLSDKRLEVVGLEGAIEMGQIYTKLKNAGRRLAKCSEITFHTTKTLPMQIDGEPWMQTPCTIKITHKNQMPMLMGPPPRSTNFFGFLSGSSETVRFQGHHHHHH

human DGKζ = target: T2, human DGKζ (Homo sapiens, UniProt Q13574); test: DGKζ LIPGLO assay (extruded liposome substrate), in vitro DGK inhibition; assay type: biochemical; details: read-out: DGKz LIPGLO IC50
T2 construct: TVMV protease cleavage site (C); Hexa-His (C); made in house; host or cells: Sf9 insect cells (baculovirus, Bac-to-Bac)
T2 sequence (Q13574 with tags, fused parts or gaps isoform Q13574-4): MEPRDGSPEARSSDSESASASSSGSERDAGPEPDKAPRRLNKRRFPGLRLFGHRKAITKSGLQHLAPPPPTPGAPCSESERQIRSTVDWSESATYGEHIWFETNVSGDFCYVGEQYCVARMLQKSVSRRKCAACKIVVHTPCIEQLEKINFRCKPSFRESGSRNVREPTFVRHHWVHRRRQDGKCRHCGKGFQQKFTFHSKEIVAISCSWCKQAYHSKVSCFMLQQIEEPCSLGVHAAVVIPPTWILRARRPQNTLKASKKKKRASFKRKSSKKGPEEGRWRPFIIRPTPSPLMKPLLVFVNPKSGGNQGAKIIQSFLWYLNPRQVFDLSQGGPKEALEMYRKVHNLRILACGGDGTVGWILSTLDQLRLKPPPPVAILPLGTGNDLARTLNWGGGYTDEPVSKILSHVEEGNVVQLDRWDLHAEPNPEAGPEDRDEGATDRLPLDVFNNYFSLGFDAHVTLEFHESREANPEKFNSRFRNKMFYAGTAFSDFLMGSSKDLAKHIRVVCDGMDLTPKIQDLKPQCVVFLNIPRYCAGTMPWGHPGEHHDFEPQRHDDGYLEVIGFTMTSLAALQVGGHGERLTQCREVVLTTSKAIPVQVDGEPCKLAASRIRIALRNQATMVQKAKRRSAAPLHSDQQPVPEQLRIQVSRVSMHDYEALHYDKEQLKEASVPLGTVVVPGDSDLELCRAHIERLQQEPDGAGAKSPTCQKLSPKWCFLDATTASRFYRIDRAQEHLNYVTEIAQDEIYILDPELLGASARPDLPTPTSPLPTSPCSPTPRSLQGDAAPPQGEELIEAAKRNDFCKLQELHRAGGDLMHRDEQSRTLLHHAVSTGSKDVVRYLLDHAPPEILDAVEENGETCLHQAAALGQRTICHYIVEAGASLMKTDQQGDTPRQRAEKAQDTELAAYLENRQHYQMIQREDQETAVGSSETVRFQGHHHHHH

[1] = Homo sapiens, 24 h, normalized to 3 μM reference compound with anti-CD3 plus anti-CD28 as 100% activation
[2] = Homo sapiens, 24 h, anti-CD3 plus anti-CD28, 24 hours, 3 μM reference compound = 100% activation
[3] = normalized to 3 μM reference compound with anti-CD3 plus anti-CD28 as 100% activation
[4] = anti-CD3 plus anti-CD28, 24 hours, 3 μM reference compound = 100% activation

| IC50 (human DGKα; liposome (LIPGLO) assay) [µM] | IC50 (human DGKζ; liposome (LIPGLO) assay) [µM] | IC50 (human DGKα; DGKα liposome (LIPGLO) assay) [µM] | IC50 (human DGKζ; DGKζ liposome (LIPGLO) assay) [µM] | Structure (SMILES) | EC50 (Human venous whole blood; [1]) [µM] | EC50 (Human venous whole blood; [2]) [µM] | EC50 (Human venous whole blood; [3]) [µM] | EC50 (Human venous whole blood; [4]) [µM] |
| --- | --- | --- | --- | --- | --- | --- | --- | --- |
| 0.52 | 1.7 |  |  | COc1cc(OC(F)(F)F)ccc1CN1C[C@H](C)N(c2cc(=O)n(C)c3ccc(C#N)nc23)C[C@H]1C [Example 352, 8-((2S,5R)-4-(2-methoxy-4-(trifluoromethoxy)benzyl)-2,5-dimethylpiperazin-1-yl)-5-methyl-6-oxo-5,6-dihydro-1,5-naphthyridine-2-carbonitrile] | 0.79 |  |  |  |
|  |  | 0.78 | 7.5 | CC(c1ccc(F)c(F)c1)N1CCN(c2c(C#N)c(=O)n(C)c3ccc(C#N)nc23)C[C@H]1C (stereo partly drawn) [Example 956] |  | 4 |  |  |
| 0.33 | 5.1 |  |  | C[C@@H]1CN(c2cc(=O)n(C)c3ccc(C#N)nc23)[C@@H](C)CN1Cc1ccc(OC(F)F)cc1F [Example 590] | 1.9 |  |  |  |
| 5.6 | 13 |  |  | C[C@@H]1CN(c2cc(=O)n(C)c3ccc(C#N)nc23)[C@@H](C)CN1C(c1ccc(F)cc1)c1cccnn1 (single isomer, unassigned) [Example 383] | 3.2 |  |  |  |
| 0.0044 | 0.016 |  |  | CC[C@@H]1CN(c2cc(=O)n(C)c3ccc(C#N)nc23)[C@@H](C)CN1C(C)c1ccc(OC(F)F)cc1 (stereo partly drawn) [Example 1344] |  |  | 0.051 |  |
|  |  | 7.7 | 1.1 | Cc1ccc(C(c2cccc(Cl)c2)N2CCN(c3c(C#N)c(=O)n(C)c4ccc(C#N)nc34)C[C@H]2C)nc1 (single isomer, unassigned) [Example 929] |  |  |  | 1.3 |
| 40 | 0.42 |  |  | C[C@@H]1CN(c2cc(=O)n(C)c3ccc(C#N)nc23)[C@@H](C)CN1C(c1cccc(F)c1)c1cccc2c1OCCCO2 (single isomer, unassigned) [Example 445] | 2.6 |  |  |  |
| 0.97 | 0.48 |  |  | CC[C@H]1CN(C(C)c2cc(F)c(F)c(F)c2)[C@H](C)CN1c1cc(=O)n(C)c2ccc(C#N)nc12 (single isomer, unassigned) [Example 1383] | 7 |  |  |  |
|  |  | 9.8 | 9.3 | Cc1ccc(C(c2ccc(Cl)cc2)N2CCN(c3c(C#N)c(=O)n(C)c4ccc(C#N)nc34)C[C@H]2C)cc1 (single isomer, unassigned) [Example 945] |  |  |  | 1.6 |
| 20 | 4.8 |  |  | CC(c1ccc(OC(C)(C)C)cc1)N1C[C@H](C)N(c2cc(=O)n(C)c3ccc(C#N)nc23)C[C@H]1C (single isomer, unassigned) [Example 1441] |  |  | 5.4 |  |
| 0.22 | 0.092 |  |  | CC(=O)N1CC(c2noc(C(c3ccc(F)cc3)N3C[C@H](C)N(c4cc(=O)n(C)c5ccc(C#N)nc45)C[C@H]3C)n2)C1 (single isomer, unassigned) [Example 1297] | 2.7 |  |  |  |
|  |  | 1.1 | 1.8 | C[C@@H]1CN(c2cc(=O)n(C)c3ccc(C#N)nc23)[C@@H](C)CN1C(c1ccc(F)cc1)c1cc(C2CC2)on1 (single isomer, unassigned) [Example 729] |  | 2.2 |  |  |
| 0.14 | 2.2 |  |  | CC(c1ccc(OC(F)(F)F)cc1)N1C[C@H](C)N(c2cc(=O)n(C)c3ccc(C#N)nc23)C[C@H]1CO (single isomer, unassigned) [Example 1386] |  |  | 3.9 |  |
|  |  | 8.6 | 0.68 | COc1ncccc1C(c1ccc(F)cc1)N1CCN(c2c(C#N)c(=O)n(C)c3ccc(C#N)nc23)C[C@H]1C (single isomer, unassigned) [Example 894] |  |  |  | 4 |
|  |  | 2.8 | 3.9 | C[C@@H]1CN(c2c(C#N)c(=O)n(C)c3ccc(C#N)nc23)CCN1Cc1cccc(C(F)(F)F)c1 [Example 1003] |  | 20 |  |  |
| 1.2 | 3 |  |  | CC[C@H]1CN(C(c2cccc(F)c2)c2ccc(C)cn2)[C@H](C)CN1c1cc(=O)n(C)c2ccc(C#N)nc12 (single isomer, unassigned) [Example 1126] |  |  | 0.95 |  |
|  |  | 1.3 | 3.2 | C[C@@H]1CN(c2c(C#N)c(=O)n(C)c3ccc(C#N)nc23)CCN1Cc1ccc2ccccc2n1 [Example 992] |  | 5.8 |  |  |
| 0.4 | 0.21 |  |  | CC[C@@H]1CN(c2cc(=O)n(C)c3ccc(C#N)nc23)[C@@H](C)CN1C(c1ccc(F)cc1)c1ccc(F)cc1 [Example 1097] | 0.66 |  |  |  |

| IC50 (human DGKα; liposome (LIPGLO) assay) [µM] | IC50 (human DGKζ; liposome (LIPGLO) assay) [µM] | IC50 (human DGKα; DGKα liposome (LIPGLO) assay) [µM] | IC50 (human DGKζ; DGKζ liposome (LIPGLO) assay) [µM] | Structure (SMILES) | EC50 (Human venous whole blood; [1]) [µM] | EC50 (Human venous whole blood; [2]) [µM] | EC50 (Human venous whole blood; [3]) [µM] | EC50 (Human venous whole blood; [4]) [µM] |
| --- | --- | --- | --- | --- | --- | --- | --- | --- |
| 1.1 | 0.045 |  |  | CCOC[C@@H]1CN(c2cc(=O)n(C)c3ccc(C#N)nc23)[C@@H](C)CN1C(c1ccc(F)cc1)c1ccc(C(F)(F)F)cn1 (stereo partly drawn) [Example 1403] |  |  | 1.9 |  |
| 1.3 | 2.9 |  |  | C[C@@H]1CN(c2cc(=O)n(C)c3ccc(C#N)nc23)[C@@H](C)CN1C(c1ccc(F)cc1)c1cc(F)ccn1 (stereo partly drawn) [Example 472, 8-((2S,5R)-4-((4-fluorophenyl)(4-fluoropyridin-2-yl)methyl)-2,5-dimethylpiperazin-1-yl)-5-methyl-6-oxo-5,6-dihydro-1,5-naphthyridine-2-carbonitrile] | 1.3 |  |  |  |
| 1.5 | 0.13 |  |  | CC[C@@H]1CN(c2cc(=O)n(C)c3ccc(C#N)nc23)[C@@H](C)CN1C(c1ccc(F)cc1)c1ccnc(C)n1 (single isomer, unassigned) [Example 418] |  |  | 0.28 |  |
|  |  | 0.51 | 0.33 | Cc1ccc(C(c2ccc(F)cc2)N2CCN(c3c(C#N)c(=O)n(C)c4ccc(C#N)nc34)C[C@H]2C)cc1 (stereo partly drawn) [Example 888] |  | 1.2 |  |  |
|  |  | 48 | 1 | Cc1ccc(C)c(C(C)N2CCN(c3c(C#N)c(=O)n(C)c4ccc(C#N)nc34)C[C@H]2C)c1 (single isomer, unassigned) [Example 977] |  |  |  | 4.9 |
|  |  | 0.34 | 0.7 | Cc1ccc(C(c2ccc(F)cn2)N2CCN(c3c(C#N)c(=O)n(C)c4ccc(C#N)nc34)C[C@H]2C)cc1 (stereo partly drawn) [Example 898] |  |  |  | 0.48 |
| 0.09 | 0.054 |  |  | CC[C@H]1CN(C(c2ccc(F)cc2)c2cccc(C(F)(F)F)n2)[C@H](CC)CN1c1cc(=O)n(C)c2ccc(C#N)nc12 (single isomer, unassigned) [Example 1046] |  |  | 0.14 |  |
| 1.2 | 0.15 |  |  | CC[C@@H]1CN(c2cc(=O)n(C)c3ccc(C#N)nc23)[C@@H](C)CN1C(c1ccc(F)cc1)c1cccc(C(F)(F)F)n1 (stereo partly drawn) [Example 1112] |  |  | 0.17 |  |
| 0.82 | 1.7 |  |  | CC(c1ccc(OC(F)(F)F)cc1)N1C[C@H](CO)N(c2cc(=O)n(C)c3ccc(C#N)nc23)C[C@H]1C (single isomer, unassigned) [Example 1420] |  |  | 1.7 |  |
| 0.2 | 0.29 |  |  | C[C@@H]1CN(c2cc(=O)n(C)c3ccc(C#N)nc23)[C@@H](C)CN1C(Cc1nc(C2CC2)no1)c1ccc(F)cc1 (single isomer, unassigned) [Example 1327] |  |  | 0.18 |  |
| 0.31 | 1 |  |  | Cc1ccc(C(c2ccc(C#N)cc2)N2C[C@H](C)N(c3cc(=O)n(C)c4ccc(C#N)nc34)C[C@H]2C)nc1 (stereo partly drawn) [Example 453, 8-((2S,5R)-4-((4-cyanophenyl)(5-methylpyridin-2-yl)methyl)-2,5-dimethylpiperazin-1-yl)-5-methyl-6-oxo-5,6-dihydro-1,5-naphthyridine-2-carbonitrile] |  |  | 2.8 |  |
| 1.1 | 2.8 |  |  | C[C@H]1CN(C(c2ccc(F)cc2)c2ccc(C(F)(F)F)cn2)[C@H](CO)CN1c1cc(=O)n(C)c2ccc(C#N)nc12 (single isomer, unassigned) [Example 1388] | 0.88 |  |  |  |
| 0.065 | 0.13 |  |  | CC[C@@H]1CN(c2cc(=O)n(C)c3ccc(C#N)nc23)[C@@H](C)CN1C(c1ccc(F)cc1)c1ccc(C(F)(F)F)cn1 (single isomer, unassigned) [Example 1107] |  |  | 0.077 |  |
| 33 | 1.4 |  |  | COc1cc(C(C)N2C[C@H](C)N(c3cc(=O)n(C)c4ccc(C#N)nc34)C[C@H]2C)ccc1F (single isomer, unassigned) [Example 1232] |  |  | 20 |  |
|  |  | 0.61 | 1.3 | C[C@@H]1CN(c2cc(=O)n(C)c3ccc(C#N)nc23)[C@@H](C)CN1C(c1ccc(F)cc1)c1nc(C2CCOCC2)no1 (single isomer, unassigned) [Example 740] |  |  |  | 0.12 |
|  |  | 6.1 | 0.7 | Cc1cccc(C(c2ccc(F)cc2)N2CCN(c3c(C#N)c(=O)n(C)c4ccc(C#N)nc34)C[C@H]2C)c1 (stereo partly drawn) [Example 917] |  |  |  | 0.85 |
| 0.31 | 0.25 |  |  | CCC(c1ccc(OC(F)(F)F)cc1F)N1C[C@H](C)N(c2cc(=O)n(C)c3ccc(C#N)nc23)C[C@H]1CC (single isomer, unassigned) [Example 420] |  |  | 0.15 |  |
| 20 | 11 |  |  | Cc1ccc(C(c2cccc(F)c2)N2C[C@H](C)N(c3cc(=O)n(C)c4ccc(C#N)nc34)C[C@H]2C)cn1 (stereo partly drawn) [Example 417, 8-((2S,5R)-4-((3-fluorophenyl)(6-methylpyridin-3-yl)methyl)-2,5-dimethylpiperazin-1-yl)-5-methyl-6-oxo-5,6-dihydro-1,5-naphthyridine-2-carbonitrile] |  |  | 7.7 |  |
